Assays:
[1] = Temperature dependence of Stokes luminescence intensity of dye in solution; type: physicochemical; details: for temperature-sensitive properties of Stokes luminescence: 10 μM dye, emission spectra at different temperatures
Method: (§1) Concentration of dye is 10 μM, and solvent is 150 mM KCl solution, pH 7.5; (d) Stokes emission spectra (excited at 530 nm) of 10 μM RhBME (dissolved in 150 mM KCl solution at pH 7.5) at different temperatures (from bottom to top, 45, 35, 25, 15, 5[…] respectively), and Stokes luminescence intensity is normalized against peak at 25[…].

[2] = literature [2, 3]; cited from earlier work
[3] = Temperature dependence of anti-Stokes luminescence intensity of dye in solution; type: physicochemical; details: 10 μM in 150 mM KCl pH 7.5, excited at 633 nm, 5-45 degrees
Method: as §1, with “anti-Stokes” for “Stokes”, “633” for “530”, “Rh101ME” for “RhBME”, “top” for “bottom”, “bottom,” for “top,”
From the spectrogram of Rh101 and derivatives thereof (FIG. 1a), it can be seen that there is no significant difference in spectroscopic characteristics between the compound of formula II (Rh101AM) or the compound of formula IV (Rh101ME) and Rh101.

[4] = literature [2, 3]; cited from earlier work; remark: listed apart in the source

Molecule | temperature-sensitive properties of Stokes luminescence [1] | Stokes luminescence intensity vs temperature [1] | further results
tetramethylrhodamine methyl ester [TMRM] | possess temperature-sensitive properties | – | –
N=c1ccc2c(-c3ccccc3C(=O)O)c3ccc(N)cc3oc-2c1 [Rh110] | does not possess temperature-sensitive properties | – | –
CCCCCCCCCCCCCCCCOC(=O)c1ccccc1-c1c2ccc(=[N+](CC)CC)cc-2oc2cc(N(CC)CC)ccc12 [RhB-C16] | possesses temperature-sensitive properties | – | –
CCN(CC)c1ccc2c(-c3ccccc3C(=O)OC)c3ccc(N(CC)CC)cc3[o+]c2c1.[Cl-] [RhBME] | – | decreases as the temperature increases | –
CCN(CC)c1ccc2c(-c3ccccc3C(=O)O)c3ccc(=[N+](CC)CC)cc-3oc2c1 [RhB, Rhodamine B] | – | – | Stokes emission intensity vs temperature [2]: decreased as the temperature increases
CC(=O)OCOC(=O)c1ccccc1C1=c2cc3c4c(c2Oc2c1cc1c5c2CCCN5CCC1)CCC[N+]=4CCC3 [Rh101AM] | – | does not substantially change as the temperature changes | –
CCN(CC)c1ccc2c(-c3ccccc3C(=O)OCOC(C)=O)c3ccc(=[N+](CC)CC)cc-3oc2c1 [RhBAM] | – | decreases as the temperature increases | –
N#CC1=c2cc3c4c(c2Oc2c1cc1c5c2CCCN5CCC1)CCC[N+]=4CCC3 [Rh800] | does not possess temperature-sensitive properties at a wavelength of less than 700 nm | – | –
CCN(CC)c1ccc2c(-c3ccccc3C(=O)OCc3ccc(C(=O)Nc4cc5cccnc5c5ncccc45)cc3)c3ccc(=[N+](CC)CC)cc-3oc2c1 [RPA, Rhodamine B-[(1,10-phenanthrolin-5-yl)aminocarbonyl]benzyl ester] | possess temperature-sensitive properties | – | –
O=C(O)c1ccccc1C1=c2cc3c4c(c2Oc2c1cc1c5c2CCCN5CCC1)CCC[N+]=4CCC3 [Rh101, rhodamine 101] | does not possess temperature-sensitive properties | – | anti-Stokes luminescence intensity vs temperature [3]: increases as the temperature increases; Anti-Stokes emission intensity vs temperature [4]: enhanced as the temperature increases

— patent US20160376247A1, “NOVEL TEMPERATURE-SENSITIVE FLUORESCENT COMPOUND AND APPLICATION THEREOF” (SHANGHAI INSTITUTES FOR BIOLOGICAL SCIENCES, CHINESE …, priority 2013, published 2016)
